According to patent US7541368B2, “Pyrazoles as inhibitors of tumor necrosis factor” (Aventis Pharmaceuticals Inc., priority 2003, dated 2009):
Read-outs that look alike come from different tables or passages of the source.

What was measured:
Murine p38 = target: T1, Murine p38 (Mus musculus, UniProt P47811); test: Murine p38α standard assay against pre-activated p38 (ATF-2 phosphorylation, DELFIA); type: biochemical; details: murine p38, ATF-2 substrate
T1 construct: purchased CalBiochem 506122
Description: Compounds of the invention were tested in a conventional assay against pre-activated p38. Murine p38 enzyme activity was determined by measuring the incorporation of the γ-phosphate of ATP into ATF-2.
Human GST-tagged ATF-2 (50 μg/ml) was coated onto 96 well plates. Assay buffer (25 mM Hepes buffer, pH 7.7 containing 25 mM magnesium chloride, 2 mM dithiothreitol, 1 mM sodium orthovanadate and 100 μM ATP) was then added to each well. Compounds were dissolved in DMSO (100%) and added to the assay buffer to give a fmal DMSO concentration of 0.3%. Murine p38 (CalBiochem Catalog # 506122; 40 ng/ml) was then added and the assay continued for 1 hour.
Phosphorylated ATF-2 was quantitated using a rabbit anti-human phospho (threonine 71)-specific ATF-2 primary antibody (Cell Signaling, Catalog # 9221B) followed by a sheep europium N^1-labelled anti-rabbit IgG secondary antibody (Perkin Elmer Life Sciences Catalog # AD0105) and addition of the DELFIA enhancement solution (Perkin Elmer Life Sciences) resulting.
Fluorescence was measured using a Wallac Victor^2 1420 multi-label HTS counter (Perkin Elmer Life Sciences). The results are reported as IC50 values. Compounds were tested over the concentration range of 3×10^−10M to 3>10^−5M.

[1] = target: T2, Inactive N-terminal His6 tagged murine P38 (Mus musculus, UniProt P47811); test: p38 cascade assay (HTRF; inactive p38 activated by MKK-6, ATF-2 phosphorylation); type: biochemical; details: inactive p38 preincubated with compound, then MKK-6, ATF-2, ATP; read-out: 50% inhibition in the p38 cascade assay at concentrations within the range
T2 construct: His6 (N); made in house
Description: The homogeneous time resolved fluorescence method (HTRF) assay measured the phosphorylation of human activating transcription factor (ATF)-2 protein by P38 following activation by MKK-6 and was run in A384 well plate format. […] MBP-tagged mouse MKK-6 (final concentration 50 nM), GST-tagged ATF-2 (fmal concentration 200 nM) and ATP (final concentration 50 μM) were then added and the incubation continued for 90 min. p38, MKK-6 and ATF-2 were prepared in the Protein Production Group, Aventis Pharmaceuticals. XL665 labeled anti-GST antibody (Cis Bio International) and cryptate labeled anti-pbospho-ATF2 antibody (Cis Bio International) were then added to generate the specific signal proportional to the phosphorylation of the substrate. The close proximity of XL665 labeled anti-GST antibody/phosphorylated GST-ATF2 complex and the cryptate labeled anti-phospho-ATF2 antibody results in a fluorescence transfer from cryptate to XL665. The resulting fluorescence signal was than read on a LJL Acquest set at multi-method mode using a fluorescence filter set (E=360 nm, Em=615/665 nm) with UV dichroic mirror (Integration time: 300000 μs). The results are reported as IC50 values. Compounds were tested over the concentration range of 3×10^−10M to 3×10^−5M.

[2] = test system: Human HSP27 phosphorylation; test: HSP27 phosphorylation in LPS stimulated THP-1 cells; type: cell-based; details: Western blot, read-out: HSP-27
Description: The effects of compounds on Heat Shock Protein (HSP)-27 phosphorylation in LPS stimulated THP-1 cells were examined as follows:
THP-1 cells were maintained as described for the TNF-alpha assay (1.1.).
THP-1 cells (1×10 ^6 cells/ml, total volume 1 ml) in culture medium were incubated for one hour (5% CO2, 37° C.) with fresh medium containing compounds (0.0001-30 μM) or vehicle (0.1% DMSO). LPS ([…]) was then added to the cells (except the untreated cell sample) and the incubation continued for a further 20 minutes. Cells were collected, centrifuiged and washed with ice-cold PBS buffer (free of Ca^2+ and Mg^2+). Cell lysates were prepared with 1× lysis buffer (Promega Catalog# E153A) for storage at −20° C.
HSP27 phosphorylation was determined by Western blot-enhanced chemi-luminescence (ECL-Amersham)). Briefly, cell lysates were electrophoresed on 12% Tris-glycine gels and transferred to nitrocellulose membranes. The membranes were then probed with primary rabbit antiphospho-HSP27 (ser82) antibody and secondary anti-rabbit antibody conjugated to horse raddish peroxidase. After addition of the ECL detection reagent, the film was developed and the p-HSP27 immunoreactivity quantified by densitometry.

[3] = test system: TNF-alpha release in THP-1 cells; test: LPS-induced TNF-alpha release in THP-1 cells; type: cell-based; details: Homo sapiens, THP-1, LPS-stimulated THP-1 cells
Procedure, shortened: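 Undifferentiated THP-1 monocytes (1×10^6 cells/ml, 1% FCS) preincubated 1 h at 37° C with compound (1×10^−9 to 1×10^−6 M, 0.3% DMSO), then stimulated with LPS (20 μg/ml) for 18 h. Supernatant TNF-alpha measured by sandwich ELISA (TMB read-out), interpolated from a log/log standard curve (0.125-16 ng/ml).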

[4] = TNF-alpha by ELISA, read-out: THP 1 cells
[5] = read-out: 50% inhibition in the LPS-induced TNF-alpha release in THP-1 cells assay at concentrations within the range

T2 sequence (P47811 whole entry): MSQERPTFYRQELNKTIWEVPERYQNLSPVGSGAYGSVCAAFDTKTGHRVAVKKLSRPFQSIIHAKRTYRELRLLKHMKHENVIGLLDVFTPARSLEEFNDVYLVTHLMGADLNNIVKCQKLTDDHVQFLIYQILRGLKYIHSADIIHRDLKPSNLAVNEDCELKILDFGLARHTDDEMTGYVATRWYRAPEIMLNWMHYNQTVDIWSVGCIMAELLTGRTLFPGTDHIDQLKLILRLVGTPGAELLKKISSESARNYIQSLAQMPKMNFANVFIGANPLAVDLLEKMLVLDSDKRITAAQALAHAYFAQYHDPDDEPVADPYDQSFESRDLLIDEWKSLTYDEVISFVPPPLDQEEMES
T1 sequence (P47811 whole entry): as above

SMILES	IC50 (Murine p38)	IC50 [1]	IC50 [2]	IC50 [3, 4]	IC50 [3, 5]
COc1ccc(C(=O)N2CCC(Cc3cccc(NC(=O)Nc4cc(C(C)(C)C)nn4-c4ccc(C)cc4)c3)CC2)c(OC)c1 [Compound A27, 1-(5-tert-butyl-2-p-tolyl-2H-pyrazol-3-yl)-3-{3-[1-(2,4-dimethoxy-benzoyl)-piperidin-4-ylmethyl]-phenyl}-urea]	0.216 µM	0.01 to 0.1 µM	0.027 µM	0.0106 µM	0.01 to 0.5 µM
COc1ccc(C(=O)N2CCC(Cc3ccc(NC(=O)Nc4cc(C(C)(C)C)nn4-c4ccc(C)cc4)cc3)CC2)c(OC)c1 [Compound A218, 1-(5-tert-Butyl-2-p-tolyl-2H-pyrazol-3-yl)-3-{4-[1-(2,4-dimethoxy-benzoyl)-piperidin-4-ylmethyl]-phenyl}-urea]	0.23 µM	0.01 to 0.1 µM		0.0155 µM	0.01 to 0.5 µM
Cc1ccc(-n2nc(C(C)(C)C)cc2NC(=O)Nc2ccc(CC3CCN(C(=O)c4ccc5ncccc5c4)CC3)cc2)cc1 [Compound A386, 1-(5-tert-Butyl-2-p-tolyl-2H-pyrazol-3-yl)-3-{4-[1-(quinoline-6-carbonyl)-piperidin-4-ylmethyl]-phenyl}-urea]		0.01 to 0.1 µM			0.01 to 0.5 µM
Cc1ccc(-n2nc(C(C)(C)C)cc2NC(=O)Nc2ccc(CC3CCN(S(C)(=O)=O)CC3)cc2)cc1 [Compound A608, 1-(5-tert-Butyl-2-p-tolyl-2H-pyrazol-3-yl)-3-[4-(1-methanesulfonyl-piperidin-4-ylmethyl)-phenyl]-urea]		0.01 to 0.1 µM			0.01 to 0.5 µM
COc1ccc(C(=O)N2CCC(Cc3ccccc3NC(=O)Nc3cc(C(C)(C)C)nn3-c3ccc(C)cc3)CC2)c(OC)c1 [Compound A1113, 1-(5-tert-butyl-2-p-tolyl-2H-pyrazol-3-yl)-3-{2-[1-(2,4-dimethoxy-benzoyl)-piperidin-4-ylmethyl]-phenyl}-urea]	0.5 µM			0.083 µM	0.01 to 0.5 µM
Cc1ccc(-n2nc(C(C)(C)C)cc2NC(=O)Nc2ccc(CC3CCN(C(=O)OCc4ccccc4)CC3)cc2)cc1 [Compound A1610, 4-{4-[3-(5-tert-Butyl-2-p-tolyl-2H-pyrazol-3-yl)-ureido]-benzyl}-piperidine-1-carboxylic acid benzyl ester]		0.01 to 0.1 µM			0.01 to 0.5 µM
Cc1ccc(-n2nc(C(C)(C)C)cc2NC(=O)Nc2ccc(CC3CCN(C(=O)OCC(C)C)CC3)cc2)cc1 [Compound A1625, 4-{4-[3-(5-tert-Butyl-2-p-tolyl-2H-pyrazol-3-yl)-ureido]-benzyl}-piperidine-1-carboxylic acid isobutyl ester]		0.01 to 0.1 µM			0.01 to 0.5 µM
COc1ccc(OC)c(C(=O)N2CCC(Cc3cccc(NC(=O)Nc4cc(C(C)(C)C)nn4-c4ccc(C)cc4)c3)CC2)c1 [Compound A1636, 1-(5-tert-Butyl-2-p-tolyl-2H-pyrazol-3-yl)-3-{3-[1-(2,5-dimethoxy-benzoyl)-piperidin-4-ylmethyl]-phenyl}-urea]		0.01 to 0.1 µM			0.01 to 0.5 µM
COc1ccc(C(=O)N2C3CCC2CC(Cc2ccc(NC(=O)Nc4cc(C(C)(C)C)nn4-c4ccc(C)cc4)cc2)C3)c(OC)c1 (centres unmarked) [Example 4, 1-(5-tert-Butyl-2-p-tolyl-2H-pyrazol-3-yl)-3-{4-[8-(2,4-dimethoxy-benzoyl)-8-aza-bicyclo[3.2.1]oct-3-ylmethyl]-phenyl}-urea]	1.17 µM			0.0795 µM	
COc1ccc(C(=O)N2C3CCC2CC(Cc2ccccc2NC(=O)Nc2cc(C(C)(C)C)nn2-c2ccc(C)cc2)C3)c(OC)c1 (centres unmarked) [Example 5, 1-(5-tert-butyl-2-p-tolyl-2H-pyrazol-3-yl)-3-{2-[8-(2,4-dimethoxy-benzoyl)-8-aza-bicyclo[3.2.1]oct-3-ylmethyl]-phenyl}-urea]	6.75 µM			5.11 µM	
